From paper PMC11597202, “Novel Thiazole-Fused [4,5-g] or [5,4-g]Quinazolin-8-ones and Their Quinazoline Analogues: Synthesis and Biological Evaluation” (Pharmaceuticals, 2024)

Columns and labels:
[1] = In vitro cytotoxic assay, Huh7-D12; assay type: cell-based; settings: human, Huh7-D12 cells (liver cancer cell line)
Experimental: (§1) Skin normal fibroblastic cells were purchased from Lonza (Basel, Switzerland). […] All culture media were supplemented by 10% of FBS, 1% of penicillin–streptomycin and 2 mM glutamine.
(§2) Chemicals were solubilized in DMSO at a concentration of 10 mM (stock solution) and diluted in culture medium to the desired final concentrations. […] Cells were plated in 96-well plates (4000 cells/well). Twenty-four hours after seeding, the cells were exposed to chemicals. […] Image acquisition and analysis were performed using a Cellomics ArrayScan VTI/HCS Reader (ThermoScientific, Les Ulis, France). The survival percentages were calculated as the percentage of cell number after compound treatment over cell number after DMSO treatment. The relative IC50 values were calculated using the curve fitting XLfit 5.5.0.5 (idbs) integrated in Microsoft Excel as an add-on.
(§3) 4.3.1. Cell culture. Skin normal fibroblastic cells are purchased from Lonza (Basel, Switzerland). Huh7- […]
(§4) from ATCC (American Type Culture Collection). […]
(§5) supplemented by 10% of FBS, 1% of penicillin-streptomycin and 2 mM glutamine.
(§6) 4.3.2. Cytotoxic assay. Chemicals were solubilized in DMSO at a concentration of 10 mM (stock solution) and diluted in culture medium to the desired final concentrations. The dose effect cytotoxic assays (IC50 determination) were performed by increasing the concentrations of each chemical (final well […]
(§7) Cells were plated in 96-well plates
(§8) (4000 cells/well). Twenty-four hours after seeding, cells were exposed to chemicals. After 48h of treatment, cells were washed in PBS and fixed in cooled 90% ethanol/5% acetic acid for 20 min and the […]
(§9) Image acquisition and analysis were performed using a Cellomics ArrayScan VTI/HCS Reader (ThermoScientific). The survival percentages were calculated as the percentage of cell number after compound treatment over cell number after DMSO treatment. The relative IC50 were calculated using the curve fitting XLfit 5.5.0.5 (idbs) integrated in Microsoft Excel as an add-on. The 4 Parameter Logistic Model or Sigmoidal Dose-Response Model describing the sigmoid-shaped response pattern was used (fit = (A+[(B-A)/(1+[(C/x)^D])]) where fit is the response and X is the tested concentration of the compound. The lower asymptote is A (also referred to as the bottom of the curve or lower plateau or the min) and the upper asymptote is B (also referred to as the top of the curve or upper plateau or the max). The slope of the linear part of the curve is described by the factor D. The parameter C is the concentration corresponding to the response midway between A and B. C is called “relative IC50” because it refers to the maximum response obtained by a […]
(§10) The results are represented as the mean ± standard error (SE) calculated from at least three independent experiments.

[2] = In vitro cytotoxic assay, Caco-2; assay type: cell-based; settings: human, Caco-2 cells (colon cancer cell line); also: 0.1-25 µM tested
Experimental: as §1, §2, §3, §4, §5, §6, §7, §8, §9, §10

[3] = In vitro cytotoxic assay, HCT-116; assay type: cell-based; settings: human, HCT-116 cells (colon cancer cell line)
Experimental: as §1, §2, §3, §4, §5, §6, §7, §8, §9, §10

[4] = In vitro cytotoxic assay, MCF-7; assay type: cell-based; settings: human, MCF-7 cells (breast cancer cell line); also: 0.1-25 µM tested
Experimental: as §1, §2, §3, §4, §5, §6, §7, §8, §9, §10

[5] = In vitro cytotoxic assay, MDA-MB-231; assay type: cell-based; settings: human, MDA-MB-231 cells (breast cancer cell line); read-out: In vitro cytotoxic activity IC50, MBA-MB-231; also: 0.1-25 µM tested
Experimental: as §1, §2, §3, §4, §5, §6, §7, §8, §9, §10

[6] = In vitro cytotoxic assay, MDA-MB-468; assay type: cell-based; settings: human, MDA-MB-468 cells (breast cancer cell line); read-out: In vitro cytotoxic activity IC50, MBA-MB4-68
Experimental: as §1, §2, §3, §4, §5, §6, §7, §8, §9, §10

[7] = In vitro cytotoxic assay, PC-3; assay type: cell-based; settings: human, PC-3 cells (prostate cancer cell line); also: 0.1-25 µM tested
Experimental: as §1, §2, §3, §4, §5, §6, §7, §8, §9, §10

seven tumor cell lines = assay: In vitro cytotoxic assay, whole panel of cancer cell lines; assay type: cell-based, human; settings: Homo sapiens; lowest to highest IC50 among the seven cancer cell lines, 48 h; read-out: IC50 span over the cancer cell lines
Experimental: as §1, §2, §3, §4, §5, §6, §7, §8, §9, §10

| Compound | IC50 at 48 h [1] [µM] | IC50 at 48 h [2] [µM] | IC50 at 48 h [3] [µM] | IC50 at 48 h [4] [µM] | IC50 at 48 h [5] [µM] | IC50 at 48 h [6] [µM] | IC50 at 48 h [7] [µM] | IC50 (seven tumor cell lines) [µM] | melting point [°C] |
| --- | --- | --- | --- | --- | --- | --- | --- | --- | --- |
| N#Cc1nc2cc3c(=O)n(Cc4ccccc4)cnc3cc2s1 [Compound 5a, 7-Benzyl-8-oxo-7,8-dihydrothiazolo[4,5-g]quinazoline-2-carbonitrile] | > 25 | 10 | 7 | 8 | > 25 | 11 | 9 | 7 to 62 | 237 to 238 |
| N#Cc1nc2cc3ncn(Cc4ccccc4)c(=O)c3cc2s1 [Compound 5b, 7-Benzyl-8-oxo-7,8-dihydrothiazolo[5,4-g]quinazoline-2-carbonitrile] | 3 | 1 | 2 | 2 | 3 | 1 | 2 | 1 to 3 | 217 to 218 |
| N#Cc1nc2c(ccc3c(=O)n(Cc4ccccc4)cnc32)s1 [Compound 5c, 7-Benzyl-6-oxo-6,7-dihydrothiazolo[5,4-h]quinazoline-2-carbonitrile] | 17 | 11 | 4 | 16 | 24 | 10 | 12 | 4 to 24 | 273 to 274 |
| N#Cc1nc2ccc3c(=O)n(Cc4ccccc4)cnc3c2s1 [Compound 5d, 7-Benzyl-6-oxo-6,7-dihydrothiazolo[4,5-h]quinazoline-2-carbonitrile] | 18 | 9 | 7 | 12 | 14 | 11 | 11 | 7 to 18 |  |
| COc1ccc(Nc2ncnc3cc4sc(C#N)nc4cc23)c(F)c1 [Compound 14a, 8-[(2-Fluoro-4-methoxyphenyl)amino]thiazolo[4,5-g]quinazoline-2-carbonitrile] |  |  |  |  |  |  |  |  | 259 to 260 |
| COc1ccc(Nc2ncnc3cc4nc(C#N)sc4cc23)c(F)c1 [Compound 14b, 8-[(2-Fluoro-4-methoxyphenyl)amino]thiazolo[5,4-g]quinazoline-2-carbonitrile] |  |  |  |  |  |  |  |  | 255 to 256 |
| COc1cccc2c1C(=O)c1c(O)c3c(c(O)c1C2=O)C[C@@](O)(C(=O)CO)C[C@@H]3O[C@H]1C[C@H](N)[C@H](O)[C@H](C)O1 [Doxo, Doxorubicin, reference compound] | 0.03 | 0.03 | 0.05 | 0.05 | 0.02 | 0.04 | 0.08 |  |  |
| CC(=O)O[C@H]1C(=O)[C@@]2(C)[C@H]([C@H](OC(=O)c3ccccc3)[C@]3(O)C[C@H](OC(=O)[C@H](O)[C@@H](NC(=O)c4ccccc4)c4ccccc4)C(C)=C1C3(C)C)[C@]1(OC(C)=O)CO[C@@H]1C[C@@H]2O [Taxol, reference compound] | 0.016 | 0.02 | 0.003 | 0.006 | 0.01 | 0.003 | 0.004 |  |  |
